Legend:
[1] = Critical micelle concentration (CMC) by DPH fluorescence; type: physicochemical; details: for CMC: 50 mM tris-HCl, pH 8.0
BmrA = biological target: T1, BmrA (Bacillus subtilis, UniProt O06967); experiment: Extraction of BmrA from membranes (SDS-PAGE of supernatant); design: species or system bacterial; overexpressed in E. coli C41DE3; details: detergent 10 g/l unless indicated otherwise; 2 h at 4° C.
T1 construct: His tag; made in house; host or cells: E. coli C41(DE3)
Procedure, shortened: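 E. coli C41(DE3) membranes overexpressing BmrA (~25% of protein) or AcrB (~20%), at 2 g/l protein in 20 mM Tris-HCl pH 8.0, 100 mM NaCl, 15% glycerol with protease inhibitors, treated with detergent at 10 g/l unless stated otherwise for 2 h at 4° C. After 100 000×g centrifugation, 20 μg supernatant protein run on 10% SDS-PAGE, Coomassie-stained.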

T1 sequence (O06967 whole entry): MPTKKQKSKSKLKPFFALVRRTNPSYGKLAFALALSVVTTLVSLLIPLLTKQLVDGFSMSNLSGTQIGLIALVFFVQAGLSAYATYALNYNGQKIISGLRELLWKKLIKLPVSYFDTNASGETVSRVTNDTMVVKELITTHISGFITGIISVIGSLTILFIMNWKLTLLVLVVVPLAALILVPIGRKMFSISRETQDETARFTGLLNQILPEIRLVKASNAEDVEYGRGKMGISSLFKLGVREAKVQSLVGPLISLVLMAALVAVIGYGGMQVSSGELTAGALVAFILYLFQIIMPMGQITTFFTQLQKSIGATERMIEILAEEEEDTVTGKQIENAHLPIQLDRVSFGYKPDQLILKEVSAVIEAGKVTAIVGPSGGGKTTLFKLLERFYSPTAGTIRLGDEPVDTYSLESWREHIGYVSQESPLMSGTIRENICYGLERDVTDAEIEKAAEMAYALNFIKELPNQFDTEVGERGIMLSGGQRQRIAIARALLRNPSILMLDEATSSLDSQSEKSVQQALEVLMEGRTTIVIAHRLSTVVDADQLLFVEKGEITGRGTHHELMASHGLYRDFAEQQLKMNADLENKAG

| Structure (SMILES) | CMC [1] [mM] | extraction of BmrA (BmrA) | CMC (breakage in the slope of DPH fluorescence, FIG. 4) ([1]; triplicates) [mM] |
| --- | --- | --- | --- |
| CCCCCCCCCCCC(=O)N[C@@H](COCc1cn(CCO[C@@H]2OC(CO)[C@@H](O)C(O)C2O)nn1)C(=O)N[C@H](CCC(=O)O)C(=O)O (stereo partly shown) [Compound 3.7b] | 1.5 | non-extracting | – |
| CCCCCCCCCCCCC(CCCCCCCCCCCC)C(=O)N[C@@H](COCc1cn(CCO[C@@H]2OC(CO)[C@@H](O)C(O)C2O)nn1)C(=O)N[C@H](CCC(=O)O)C(=O)O (stereo partly shown) [Compound 3.7j] | 0.02 | partially extracting | – |
| CCCCCCCCCCCCCC(=O)N[C@@H](COCc1cn(CCO[C@@H]2OC(CO)[C@@H](O)C(O)C2O)nn1)C(=O)N[C@@H](CCC(=O)O)C(=O)NCC(=O)O (stereo partly shown) [Compound 3.7l] | 1 | extracting | – |
| CCCCCCCCCCCCCC(=O)N[C@@H](COCc1cn(CCO[C@@H]2OC(CO)[C@@H](O[C@H]3OC(CO)[C@@H](O)C(O)C3O)C(O)C2O)nn1)C(=O)N[C@H](CCC(=O)O)C(=O)O (stereo partly shown) [Compound 3.7e] | 2 | non-extracting | 2 |
| CCCCCCCCCCCCCC(=O)N[C@@H](COCc1cn(CCOCCOCCOCCOCCOCCOC)nn1)C(=O)N[C@H](CCC(=O)O)C(=O)O [Compound 3.7g] | 1 | extracting | – |
| CCCCCCCCCCCCCC(=O)N[C@@H](COCc1cn(CCO[C@@H]2OC(CO)[C@@H](O)C(O)C2O)nn1)C(=O)N[C@H](CCC(=O)O)C(=O)O (stereo partly shown) [Compound 3.7c] | 1 | extracting | – |

Source: patent publication US11440932B2, “Surfactant compounds-clips for extraction and stabilization in solution of membrane proteins” (CENTRE NATIONAL DE LA RECHERCHE SCIENTIFIQUE, priority 2017, dated 2022)
